Measurements: patent US20230286983A1 (4E Therapeutics, Inc., priority 2020, published 2023)
Values belong to the molecule of their own block, whether it stands above or below them.

Legend:
IL-6 evoked grimace = IL-6 evoked grimace test; format: in vivo, ICR mice
Method: Institute for Cancer Research (ICR) mice were used in these experiments. Mice were bred in house at University of Texas at Dallas and used at between 12 and 24 weeks of age. Mice were habituated to plexiglass boxes of approximately 4×6 inches in size with openable tops. Habituation took place over 2 days with animals exposed to the boxes for at least 30 min. A blinded observer scored baseline grimacing using the method previously described by Mogil and colleagues (Langford, et al., Coding of facial expressions of pain in the laboratory mouse. Nat Methods (2010) 7:447-449.). On test day, mice were given test compounds 1 hr prior to injection of interleukin 6 (human recombinant IL-6, R&D Systems) which was given at a dose of 0.1 ng in saline via an intraplantar injection as described previously (Moy et al. The MNK-eIF4E Signaling Axis Contributes to Injury-Induced Nociceptive Plasticity and the Development of Chronic Pain. J Neurosci (2017) 37:7481-7499.). Test compounds were given orally (PO) via a flexible oral gavage canula built for mice. 4ET-01-021 (10.0, 3.0, and 1.0 mg/kg) and 4ET-03-052B (10.0 mg/kg) are efficacious in the IL-6 evoked grimace test in mice. FIG. 5 depicts a comparison of effect size in the IL-6 evoked grimace test. Effect sizes were calculated per mouse by subtracting the baseline grimace score from the sum of the grimace scores for 1 and 3 hr time points. […] FIG. 6 is a graph showing the effect size in the IL-6 evoked grimace test vs. dose of 4ET-01-021.

MDCK-MDR1 = MDCK-MDR1 permeability (blood brain barrier permeability); format: in vitro ADME, Canine; conditions: 5 μM
MNK1 = MNK1 (Homo sapiens, UniProt Q9BUB5); assay: MNK1 substrate phosphorylation assay; format: biochemical; conditions: recombinant human kinase
MNK1, sequence (Q9BUB5 whole entry): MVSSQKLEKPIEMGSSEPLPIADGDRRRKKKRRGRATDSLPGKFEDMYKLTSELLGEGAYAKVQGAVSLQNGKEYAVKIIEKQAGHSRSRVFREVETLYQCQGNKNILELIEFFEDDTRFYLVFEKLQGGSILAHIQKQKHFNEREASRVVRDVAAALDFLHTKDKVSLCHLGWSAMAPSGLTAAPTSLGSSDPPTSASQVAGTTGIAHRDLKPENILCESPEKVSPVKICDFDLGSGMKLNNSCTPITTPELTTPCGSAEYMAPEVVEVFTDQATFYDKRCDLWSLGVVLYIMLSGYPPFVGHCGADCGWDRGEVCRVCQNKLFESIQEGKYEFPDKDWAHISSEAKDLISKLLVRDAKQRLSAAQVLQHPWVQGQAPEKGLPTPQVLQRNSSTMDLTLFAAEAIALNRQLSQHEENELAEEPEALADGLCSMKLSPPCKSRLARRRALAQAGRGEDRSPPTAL

[1] = Liver microsome stability, mouse; format: in vitro ADME; conditions: mouse liver microsomes, Table 11b
MNK2 = MNK2 (Homo sapiens, UniProt Q9HBH9); assay: MNK2 substrate phosphorylation assay; format: biochemical; conditions: recombinant human kinase
MNK2, sequence (Q9HBH9 whole entry): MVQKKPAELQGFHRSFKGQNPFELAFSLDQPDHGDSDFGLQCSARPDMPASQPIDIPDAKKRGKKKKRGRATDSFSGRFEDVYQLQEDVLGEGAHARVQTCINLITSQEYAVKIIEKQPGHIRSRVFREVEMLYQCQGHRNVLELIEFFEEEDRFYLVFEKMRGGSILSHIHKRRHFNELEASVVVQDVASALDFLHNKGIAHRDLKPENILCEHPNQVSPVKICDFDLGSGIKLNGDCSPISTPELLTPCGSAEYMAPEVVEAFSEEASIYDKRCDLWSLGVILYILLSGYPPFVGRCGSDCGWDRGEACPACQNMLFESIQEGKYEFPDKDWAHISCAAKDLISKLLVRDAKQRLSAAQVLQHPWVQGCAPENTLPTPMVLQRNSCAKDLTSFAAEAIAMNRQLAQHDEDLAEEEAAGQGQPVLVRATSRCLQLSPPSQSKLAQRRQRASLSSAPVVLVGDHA

[2] = test system: eIF4E phosphorylation at Serine 209 in the human embryonic kidney (HEK) 293 cell line; assay: eIF4E phosphorylation in HEK 293 cells (fluorescent plate reader); format: cell-based; conditions: eIF4E phosphorylation at Serine 209, 2 hours exposure
Procedure, shortened: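 HEK-293 cells were treated with compound for 2 h, then methanol-fixed and Triton-permeabilized. Ser209 phospho-eIF4E was stained with primary antibody (1:2000, overnight) and an Alexa Fluor 488 secondary. Fluorescence was normalized to DAPI, and IC50 was fitted from concentration-response data.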

[3] = biological target: T1, protein kinase G 2 (PKG2) (Homo sapiens, UniProt Q13237); assay: Off-target kinase screen PKG2; format: biochemical; conditions: 1 μM test compound
T1 sequence (Q13237 1-762): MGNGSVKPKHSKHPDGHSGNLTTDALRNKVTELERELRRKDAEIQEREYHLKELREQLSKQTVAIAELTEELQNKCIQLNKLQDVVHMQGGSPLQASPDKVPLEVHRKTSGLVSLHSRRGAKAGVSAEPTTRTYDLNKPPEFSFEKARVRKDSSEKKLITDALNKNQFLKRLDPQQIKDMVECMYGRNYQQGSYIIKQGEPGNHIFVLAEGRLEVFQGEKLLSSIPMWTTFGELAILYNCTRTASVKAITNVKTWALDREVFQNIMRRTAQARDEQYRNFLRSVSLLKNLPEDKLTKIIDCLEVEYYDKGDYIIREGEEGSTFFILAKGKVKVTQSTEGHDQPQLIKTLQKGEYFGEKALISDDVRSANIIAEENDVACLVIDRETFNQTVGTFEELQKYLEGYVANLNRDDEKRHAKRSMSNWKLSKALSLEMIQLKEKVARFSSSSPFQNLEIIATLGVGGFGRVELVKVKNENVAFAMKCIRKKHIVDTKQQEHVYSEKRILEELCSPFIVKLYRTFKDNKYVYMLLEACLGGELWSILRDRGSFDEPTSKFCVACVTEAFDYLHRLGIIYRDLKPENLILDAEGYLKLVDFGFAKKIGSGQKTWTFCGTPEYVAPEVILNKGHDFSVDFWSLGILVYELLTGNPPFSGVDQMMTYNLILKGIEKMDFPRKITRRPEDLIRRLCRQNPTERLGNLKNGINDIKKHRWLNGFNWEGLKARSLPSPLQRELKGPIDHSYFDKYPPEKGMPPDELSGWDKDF
From the text: (§1) These kinases were chosen because they are the only known off-target hit kinases for eFT508. These assays were done using recombinant human kinases (CLK4, DRAK1 and PKG2) in a substrate phosphorylation assay. % activity remaining after MNK inhibitor treatment is indicated in Table 12.

[4] = biological target: T2, death-associated protein kinase-related apoptosis-inducing protein kinase 1 (DRAK1) (Homo sapiens, UniProt Q9UEE5); assay: Off-target kinase screen DRAK1; format: biochemical; conditions: 1 μM test compound
T2 sequence (Q9UEE5 1-414): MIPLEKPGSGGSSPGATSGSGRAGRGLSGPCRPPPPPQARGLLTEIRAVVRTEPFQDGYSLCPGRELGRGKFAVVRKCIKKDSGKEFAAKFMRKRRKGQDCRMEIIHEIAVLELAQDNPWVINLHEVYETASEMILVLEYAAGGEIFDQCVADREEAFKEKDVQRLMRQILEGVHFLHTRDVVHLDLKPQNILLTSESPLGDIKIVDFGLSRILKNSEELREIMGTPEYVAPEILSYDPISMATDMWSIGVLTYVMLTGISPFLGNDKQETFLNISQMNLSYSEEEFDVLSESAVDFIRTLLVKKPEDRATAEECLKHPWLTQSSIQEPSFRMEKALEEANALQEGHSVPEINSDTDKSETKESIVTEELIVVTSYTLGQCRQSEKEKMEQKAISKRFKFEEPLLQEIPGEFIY
From the text: as §1

[5] = Liver microsome stability, human; format: in vitro ADME; conditions: liver microsomes
P-gp (human MDR1, ABCB1) = assay: MDCK-MDR1 permeability (blood brain barrier permeability); format: in vitro ADME, Canine; conditions: dog, 5 μM, average of two experiments
[6] = test system: eIF4E phosphorylation at serine 209 in various tumor cell lines; conditions: cited from earlier work
[7] = test system: diffuse large B cell lymphoma (DLBCL) cell lines; conditions: multiple DLBCL cell lines; cited from earlier work
[8] = Liver microsome stability, rat; format: in vitro ADME; conditions: Rat liver microsomes (#)
[9] = biological target: Cdc2-like kinase 4 (CLK4) (Homo sapiens, UniProt Q9HAZ1); assay: Off-target kinase screen CLK4; format: biochemical; conditions: 1 μM test compound
Cdc2-like kinase 4 (CLK4), sequence (Q9HAZ1 whole entry): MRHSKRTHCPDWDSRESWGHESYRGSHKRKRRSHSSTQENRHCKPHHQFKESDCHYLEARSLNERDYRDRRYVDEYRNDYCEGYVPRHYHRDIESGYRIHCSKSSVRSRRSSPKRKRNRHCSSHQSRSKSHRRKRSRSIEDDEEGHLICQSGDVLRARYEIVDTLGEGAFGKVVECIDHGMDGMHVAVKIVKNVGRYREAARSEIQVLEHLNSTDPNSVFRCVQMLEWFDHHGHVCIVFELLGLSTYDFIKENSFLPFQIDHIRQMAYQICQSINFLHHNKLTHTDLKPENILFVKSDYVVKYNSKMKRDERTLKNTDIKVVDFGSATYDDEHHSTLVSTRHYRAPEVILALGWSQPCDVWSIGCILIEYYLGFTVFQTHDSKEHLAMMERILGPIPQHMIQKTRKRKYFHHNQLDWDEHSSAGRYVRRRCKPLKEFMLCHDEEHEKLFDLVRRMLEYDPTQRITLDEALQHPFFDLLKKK
From the text: as §1

- Efflux ratio (ratio B-A/A-B) (MDCK-MDR1): 2.8
- Papp A-B (MDCK-MDR1; Apical to basolateral transport, average of two experiments): 22.9 ×10⁻⁶ cm/s
- Papp B-A (MDCK-MDR1; Basolateral to apical transport, average of two experiments): 63.3 ×10⁻⁶ cm/s
- IC50 (MNK1): 19.9 nM
- T1/2 [1]: 2.88 h
- IC50 (MNK2): 1.63 nM
SMILES: Cc1cc(Nc2cc(NC(=O)C3CC3)ncn2)c(=O)n2c1C(=O)NC21Cc2ccccc2[C@@H]1F (single isomer, unassigned) [Compound 4ET-03-052B, N-(6-((1′-Fluoro-8-methyl-1,5-dioxo-1,1′,3′,5-tetrahydro-2H-spiro[imidazo[1,5-a]pyridine-3,2′-inden]-6-yl)amino)pyrimidin-4-yl)cyclopropanecarboxamide]
- efficacy in the IL-6 evoked grimace test (IL-6 evoked grimace; PO 1 hr prior to IL-6, 4ET-01-021 10.0, 3.0 and 1.0 mg/kg, 4ET-03-052B 10.0 mg/kg): efficacious
- effect size in the IL-6 evoked grimace test (IL-6 evoked grimace; sum of grimace scores at 1 and 3 hr minus baseline): statistically-significant effect sizes
- IC50 [2]: 11.7 nM

SMILES: Cc1cc(Nc2cc(N)ncn2)c(=O)n2c1C(=O)NC21CCCCC1 [eFT508, reference compound]
- remaining activity at 1 µM [3]: 100%
- remaining activity at 1 µM [4]: 24%
- microsomal CLint [5]: 1.88 µL/min/mg
- half-life ([5]; read-out: Human liver microsomes t1/2): 12.3 h
- Papp A→B at 5 μM (P-gp (human MDR1, ABCB1); MDCK-MDR1, Apical to basolateral transport): 26.8 ×10⁻⁶ cm/s
- Papp B→A at 5 μM (P-gp (human MDR1, ABCB1); MDCK-MDR1, Basolateral to apical transport): 41.7 ×10⁻⁶ cm/s
- IC50 [6]: 2 to 16 nM
- anti-proliferative activity [7]: anti-proliferative activity
- microsomal CLint ([8]; read-out: CLint rodent): 2.86 µL/min/mg
- half-life ([8]; read-out: Rodent liver microsomes t1/2): 8.07 h
- remaining activity at 1 µM [9]: 68%
- half-life ([1]; mouse, liver microsomes, read-out: T1/2): 8.07 h
